These results are taken from patent US8145430B2, “Predictive scoring function for estimating binding affinity” (Schrodinger, LLC, priority 2005, dated 2012).

Test [1] concerns protein-ligand complexes in the PDB. The following applies: experimental binding affinity, cited from earlier work.
The subject of another test is Glur2 receptors. The following applies: series of Glur2 receptors; cited from earlier work.
In the next test the target is Streptavidin (Streptomyces avidinii, UniProt P22629). Kind of test: Calculated versus experimental binding affinity, streptavidin and biotin (pdb 1stp), docked structure. Conditions: using a docked structure. The text has this:
FIG. 8 illustrates Streptavidin in biotin (pdb 1stp). Both special hydrogen bonds in this complex, and hydrophobic enclosure of the hydrogen bonding region, are shown.
Here three correlated hydrogen bonds occur in a hydrophobically enclosed region. Up to the present time, no empirical scoring function has explained the exceptionally large binding affinity of streptavidin in biotin. Once the triple, enclosed hydrogen bonding motif is recognized and assigned an appropriate score, the deviation between calculated and experimental binding affinity, using a docked structure, is only 1.5 kcal/mole.

Another test concerns the target aldose reductase (Homo sapiens, UniProt P15121). Conditions: lef3 structure of aldose reductase; cited from earlier work.
[2] abbreviates: column beside SP Score (repeat).

Each structure is given as a SMILES string. Read-outs that look alike come from different tables or passages of the source.

Chain of Streptavidin (P22629 25-183): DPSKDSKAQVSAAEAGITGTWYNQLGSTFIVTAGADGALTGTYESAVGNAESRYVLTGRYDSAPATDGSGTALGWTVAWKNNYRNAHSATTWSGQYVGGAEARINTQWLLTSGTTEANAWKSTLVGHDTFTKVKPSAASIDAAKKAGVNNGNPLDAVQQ

For `Nc1c2c(nc3ccccc13)CCCC2` [1acj], the ΔG_exp in test [1] (setting [2]) and in test [1] (column beside XP Score) was -10 kcal/mol each time. For the molecule `CNC(=O)C(F)(F)C(O)(O)[C@H](CC(C)C)NC(=O)[C@@H](NC(=O)[C@@H](NC(=O)CC(C)C)C(C)C)C(C)C` [1apv], the ΔG_exp in test [1] (setting [2]) and in test [1] (column beside XP Score) was -11.3 kcal/mol throughout. Regarding `N=C(N)c1ccccc1` [1bra], the ΔG_exp in test [1] (setting [2]) and in test [1] (column beside XP Score) was -2.5 kcal/mol in each case.

As for `CC(C)c1ccc(NC(=O)[C@H](Cc2ccccc2)NC(=O)[C@H](CCCCN)NC(=O)C(F)(F)F)cc1` [1elc], the ΔG_exp in test [1] (setting [2]) and in test [1] (column beside XP Score) was -9.8 kcal/mol in each case. With `CC(=O)N[C@H](C(=O)N[C@@H](Cc1ccccc1)[C@@H](O)CN(CC1CCCCC1)NC(=O)[C@@H](NC(C)=O)C(C)C)C(C)C` [1hih], the ΔG_exp in test [1] (setting [2]) and in test [1] (column beside XP Score) was -11.3 kcal/mol in each case. Consider `CC1(C)S[C@H]([C@H](NC(=O)Cc2ccccc2)C(=O)NCc2ccccc2)N[C@H]1C(=O)N[C@@H](CO)Cc1ccccc1` [1htf], for which the ΔG_exp in test [1] (setting [2]) and in test [1] (column beside XP Score) was -11.1 kcal/mol each time. For `CC(=O)N[C@H]1[C@H]([C@H](O)[C@H](O)CO)OC(C(=O)O)=C[C@@H]1O` [1nnb], the ΔG_exp in test [1] (setting [2]) and in test [1] (column beside XP Score) was -7.2 kcal/mol each time. `O=C(O)[C@H](O)[C@@H](O)[C@H](O)[C@H](O)COP(=O)(O)O` [1pgp]: the ΔG_exp in test [1] (setting [2]) and in test [1] (column beside XP Score) was -7.8 kcal/mol throughout.

For `Cc1ccc(S(=O)(=O)N[C@@H](Cc2cccc(C(=N)N)c2)C(=O)N2CCCCC2)cc1` [1pph], the ΔG_exp in test [1] (setting [2]) and in test [1] (column beside XP Score) was -8.5 kcal/mol in each case. On to `COC(=O)[C@H](Cc1ccccc1)OP(=O)(O)[C@H](CC(C)C)NC(=O)[C@@H](NC(=O)[C@@H](NC(=O)CC(C)C)C(C)C)C(C)C` [1ppl], for which the ΔG_exp in test [1] (setting [2]) and in test [1] (column beside XP Score) was -11.5 kcal/mol in each case. In the case of `CC(C)C[C@H](N[C@@H](CCc1ccccc1)C(=O)O)C(=O)N[C@@H](Cc1c[nH]c2ccccc12)C(=O)O` [1tmn], the ΔG_exp in test [1] (setting [2]) and in test [1] (column beside XP Score) was -10 kcal/mol each time.

For the molecule `NCC1CCCCC1` [1tng], the ΔG_exp in test [1] (setting [2]) and in test [1] (column beside XP Score) was -4 kcal/mol in each case. On to `NCCCCc1ccccc1` [1tni], for which the ΔG_exp in test [1] (setting [2]) and in test [1] (column beside XP Score) was -2.3 kcal/mol throughout.

In the case of `CC12CCC(CC1=O)C2(C)C` (centres unmarked) [2cpp], the ΔG_exp in test [1] (setting [2]) and in test [1] (column beside XP Score) was -8.3 kcal/mol in each case.

Take `O=C(O)[C@@H](O)Cc1ccccc1` [2ctc]: the ΔG_exp in test [1] (setting [2]) and in test [1] (column beside XP Score) was -5.3 kcal/mol in each case. Take `CN(Cc1cnc2nc(N)nc(N)c2n1)c1ccc(C(=O)N[C@@H](CCC(=O)O)C(=O)O)cc1` [4dfr]: the ΔG_exp in test [1] (setting [2]) and in test [1] (column beside XP Score) was -13.2 kcal/mol each time. `O=C(N[C@H]1c2ccccc2C[C@H]1O)[C@H](Cc1ccccc1)CC(O)C[C@@H](Cc1ccccc1)C(=O)N[C@H]1c2ccccc2C[C@H]1O` [4phv]: the ΔG_exp in test [1] (setting [2]) and in test [1] (column beside XP Score) was -12.5 kcal/mol throughout. As for `CC(C)C[C@H](N)C(=O)NO` [4tln], the ΔG_exp in test [1] (setting [2]) and in test [1] (column beside XP Score) was -5.1 kcal/mol throughout. As to `C[C@H]1O[C@H](O)[C@H](O)[C@@H](O)[C@H]1O` [7abp], the ΔG_exp in test [1] (setting [2]) and in test [1] (column beside XP Score) was -8.1 kcal/mol throughout. Turning to `N[C@@H](CCC(=O)O)C(=O)O` [Ligand 1ftj], the ΔG (experimental binding energies) in the test with Glur2 receptors was 8.5 kcal/mol. On to `O=c1[nH]c2cc([N+](=O)[O-])c([N+](=O)[O-])cc2[nH]c1=O` [Ligand 1ftl], for which the ΔG (experimental binding energies) in the test on Glur2 receptors is 8.3 kcal/mol.

For `Cc1o[nH]c(=O)c1C[C@H](N)C(=O)O` [Ligand 1ftm], in the test on Glur2 receptors, the ΔG (experimental binding energies) was 8.8 kcal/mol. As for `N[C@@H](Cn1cc(F)c(=O)[nH]c1=O)C(=O)O` [Ligand 1mqi], the ΔG (experimental binding energies) in the test with Glur2 receptors was 11.9 kcal/mol.

On to `O=C(O)CCCC[C@@H]1SC[C@@H]2NC(=O)N[C@@H]21` [biotin], for which, at Streptavidin, the “deviation between calculated and experimental binding affinity” value was 1.5 kcal/mol. For `NC(=O)[C@@H]1C[C@]2(NC(=O)NC2=O)c2cc(F)ccc2O1` [fiderestat], on aldose reductase, the binding affinity experimentally entry is listed as “low nanomolar”.
